Experimental findings from the supplement of paper PMC11061612 are described below.

Molecules are shown by their SMILES.

Assay [1] has as its system CAL-85-1 (Breast Carcinoma). In words: Bliss excess, mean over the matrix (fraction); higher = more synergy. A digest of the protocol:
(§1)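 After 24 hours at 37°C and 5% CO2 in 1536-well plates, cells in DMEM/F12 or RPMI plus 10% FBS received two-drug dose matrices for 72 hours. Viability came from CellTiter-Glo 2.0 luminescence and was scaled as inhibition, anchored at 0 by vehicle wells and at 1 by blank wells. Combination Emax is taken as the second-highest inhibition in the matrix, and Bliss excess as the observed combination effect less EA + EB − EA·EB, with EA and EB the single-agent effects.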

In assay [2] the test system is GCIY (Gastric Carcinoma). The assay is described as above. A digest of the protocol: as §1
The subject of assay [3] is HT-144 (Melanoma). The assay is described as above. A digest of the protocol: as §1
Assay [4] concerns IGROV-1 (Ovarian Carcinoma). Described as above. The essentials: as §1
The test system of assay [5] is JURL-MK1 (Chronic Myelogenous Leukemia). Described as above. The essentials: as §1
In assay [6] the test system is MG-63 (Osteosarcoma). Described as above. A digest of the protocol: as §1
In assay [7] the test system is NCI-H1435 (Non-Small Cell Lung Carcinoma). Described as above. The essentials: as §1
In assay [8] the test system is NCI-H2170 (Squamous Cell Lung Carcinoma). Described as above. A digest of the protocol: as §1
For assay [9], the system named is NTERA-2-cl-D1 (Other Solid Carcinomas). The description is as above. The essentials:
as §1

The subject of assay [10] is OCI-M1 (Acute Myeloid Leukemia). The description is as above. The essentials:
as §1

Assay [11] has as its system RS4-11 (B-Lymphoblastic Leukemia). The description is as above. The essentials: as §1
Assay [12] deals with SCC90 (Head and Neck Carcinoma). The description is as above. A digest of the protocol:
as §1

The subject of assay [13] is TK (B-Cell Non-Hodgkin's Lymphoma). The description is as above. A digest of the protocol:
as §1

Assay [14] relates to BC-1 (B-Cell Non-Hodgkin's Lymphoma). In words: combination Emax (second highest fraction inhibited in the dose matrix, 72 h); higher = more inhibition; extreme values may be limits of the assay. The essentials: as §1
Assay [15] relates to Daudi (Burkitt's Lymphoma). The assay is described as above. The essentials:
as §1

For assay [16], the system named is NCI-H1435 (Non-Small Cell Lung Carcinoma). The description is as above. The essentials: as §1
For assay [17], the system named is NCI-H1944 (Lung Adenocarcinoma). The description is as above. The essentials:
as §1

Assay [18] deals with RPMI-8402 (T-Lymphoblastic Leukemia). Described as above. A digest of the protocol: as §1
For assay [19], the system named is SK-MEL-24 (Melanoma). Described as above. The essentials:
as §1

Assay [20] deals with TOV-21G (Ovarian Carcinoma). Described as above. A digest of the protocol: as §1
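For Bliss excess, mean over the matrix in this document: after 72 h of two-drug dosing.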

`CN(C)CCCOc1ccc(-c2ccc3ncc4c(c3c2)n(C2CCOCC2)c(=O)n4C)cn1` [AZD0156] + C[C@@H]1COCCN1C2=NC(=NC(=C2)C3(CC3)[S@](=N)(=O)C)C4=C5C=CNC5=NC=C4 [AZD6738] (first compound max 1 µM, 7x7, partner max 10 µM): the Bliss excess in assay [1] is 0.0042; in assay [2] it was 0.0607; in [3], -0.0484; in assay [4], -0.0187; in assay [5] it was 0.0269; in [6] it was -0.0056. Moreover, the Bliss excess in [7] is -0.0134; in assay [8], 0.0947; in [9], -0.0472; in assay [10] it was 0.0352; in assay [11], -0.0192; in assay [12], 0.0037. In addition, the Bliss excess in assay [13] was 0.0289. The “combination Emax” value stood at 0.936 in [14]; 0.848 in assay [15]; 0.158 in assay [16]; 0.868 in assay [17]; 0.983 in [18]; 0.457 in assay [19]. For the same molecule, the “combination Emax” value in [20] came to 0.652.
Regarding `Cn1cnc2c(F)c(Nc3ccc(Br)cc3Cl)c(C(=O)NOCCO)cc21` [Selumetinib] + C[C@@H]1COCCN1C2=NC(=NC(=C2)C3(CC3)[S@](=N)(=O)C)C4=C5C=CNC5=NC=C4 [AZD6738] (first compound max 10 µM, 7x7, partner max 10 µM), the Bliss excess in [1] was 0.0508; in [2], -0.0003; in assay [3], -0.0011; in assay [4], 0.0211; in assay [5], 0.0095; in assay [6], 0.0342. In addition, the Bliss excess in assay [7] was -0.0103; in [8], -0.0464; in assay [9] it was -0.009; in [10], 0.0217; in assay [11], -0.0098; in [12] it was 0.0126. In addition, in assay [13], the Bliss excess was determined as 0.0005. The “combination Emax” value in assay [14] stood at 0.923; in assay [15] it was 0.672; in [16] it was 0.114; in assay [17], 0.879; in assay [18] it was 0.974; in assay [19], 0.56. In assay [20], the “combination Emax” value stood at 0.809.
Turning to `CCc1c2c(nc3ccc(O)cc13)-c1cc3c(c(=O)n1C2)COC(=O)[C@]3(O)CC` [SN-38] + CN(C)CCCOc1ccc(-c2ccc3ncc4c(c3c2)n(C2CCOCC2)c(=O)n4C)cn1 [AZD0156] (first compound max 0.3 µM, 7x7, partner max 1 µM), the Bliss excess in assay [1] is -0.0349; in assay [2], 0.0057; in assay [3], -0.0219; in [4], -0.0101; in assay [5], 0.0551; in assay [6] it was -0.0166. In addition, the Bliss excess in assay [7] was -0.026; in [8], 0.0296; in assay [9] it was -0.0591; in assay [10] it was 0.0128; in assay [11], -0.0347; in assay [12] it was 0.0059. Also, the Bliss excess in [13] is 0.0322. In addition, the “combination Emax” value in assay [14] worked out at 0.979; in [15] it was 0.95; in assay [16] it was 0.202; in assay [17], 0.686; in [18], 1; in [19], 0.825. For the same molecule, in assay [20], the “combination Emax” value came to 0.574.
As for `COc1cccc(OCCCN)c1-c1cc(Nc2cnc(C#N)cn2)n[nH]1` [Prexasertib] + Cc1cc2ncnn2cc1Nc1ncc2c(n1)n(C1CCOCC1)c(=O)n2C [AZD7648] (first compound max 1 µM, 7x7, partner max 10 µM), the Bliss excess in assay [1] is 0.0382; in assay [2], -0.0648; in assay [3] it was -0.0061; in assay [4] it was -0.0264; in assay [5] it was 0.0485; in assay [6], -0.0128. Also, the Bliss excess in assay [7] is 0.0115; in assay [8], -0.0074; in [9], -0.0688; in assay [10] it was -0.0483; in assay [11] it was -0.0159; in assay [12] it was -0.036. Also, the Bliss excess in [13] was -0.0477. Besides, the “combination Emax” value in [14] stood at 0.991; in assay [15] it was 0.947; in [16], 0.336; in [17] it was 0.806; in [18] it was 1; in assay [19], 0.61. Also, the “combination Emax” value in assay [20] amounted to 0.617.
As to `CCN(CCO)CCCOc1ccc2c(Nc3cc(CC(=O)Nc4cccc(F)c4)[nH]n3)ncnc2c1` [AZD2811] + O=C(c1cc(Cc2n[nH]c(=O)c3ccccc23)ccc1F)N1CCN(C(=O)C2CC2)CC1 [Olaparib] (first compound max 1 µM, 7x7, partner max 10 µM), the Bliss excess in [1] is -0.0246; in assay [2] it was -0.0066; in assay [3], -0.0266; in [4], 0.0329; in assay [5] it was 0.073; in [6], 0.0197. The Bliss excess in assay [7] turned out to be 0.0111; in assay [8], 0.0044; in assay [9], 0.066; in assay [10] it was 0.0337; in [11], 0.0327; in assay [12], 0.0459. The Bliss excess in [13] was 0.0322. Moreover, the “combination Emax” value in assay [14] stood at 0.669; in assay [15] it was 0.48; in assay [16], 0.196; in assay [17] it was 0.243; in assay [18], 0.85; in assay [19], 0.225. In addition, the “combination Emax” value in [20] stood at 0.288.
Turning to `CC1(C)CCC(CN2CCN(c3ccc(C(=O)NS(=O)(=O)c4ccc(NCC5CCOCC5)c([N+](=O)[O-])c4)c(Oc4cnc5[nH]ccc5c4)c3)CC2)=C(c2ccc(Cl)cc2)C1` [Venetoclax] + C[C@@H]1COCCN1C2=NC(=NC(=C2)C3(CC3)[S@](=N)(=O)C)C4=C5C=CNC5=NC=C4 [AZD6738] (first compound max 1 µM, 7x7, partner max 10 µM), the Bliss excess in [1] is -0.0195; in assay [2] it was -0.0468; in [3], 0.0378; in assay [4], -0.0075; in assay [5] it was 0.0005; in assay [6], -0.0758. Moreover, the Bliss excess in assay [7] was -0.014; in assay [8] it was -0.0019; in assay [9], -0.0238; in assay [10], -0.0106; in [11], 0.0104; in [12] it was -0.014. The Bliss excess in [13] stood at 0.0223. Further, the “combination Emax” value in [14] amounted to 0.933; in [15], 0.725; in assay [16], 0.177; in assay [17], 0.892; in assay [18] it was 0.992; in [19] it was 0.454. In addition, the “combination Emax” value in [20] turned out to be 0.785.
Regarding `CCN(CCO)CCCOc1ccc2c(Nc3cc(CC(=O)Nc4cccc(F)c4)[nH]n3)ncnc2c1` [AZD2811] + C=CCn1c(=O)c2cnc(Nc3ccc(N4CCN(C)CC4)cc3)nc2n1-c1cccc(C(C)(C)O)n1 [AZD1775] (first compound max 1 µM, partner max 1 µM), the Bliss excess in assay [1] was -0.0258; in [2], 0.0503; in [3], 0.0516; in assay [4], -0.0034; in [5], -0.0001; in assay [6] it was -0.0052. The Bliss excess in assay [7] was -0.0181; in assay [8], 0.051; in assay [9], 0.192; in [10], 0.058; in assay [11], -0.0523; in [12], 0.0258. In addition, in assay [13], the Bliss excess is 0.0069. Further, the “combination Emax” value in assay [14] was 0.989; in assay [15] it was 0.786; in [16], 0.143; in [17], 0.471; in [18] it was 1; in [19], 0.414. In assay [20], the “combination Emax” value was found to be 0.591.
